Molecules are shown by their SMILES.

The target in one assay is T1, human A3AR (Homo sapiens, UniProt P0DMS8).
T1 construct: expressed in transfected cells
T1 sequence (P0DMS8 1-318): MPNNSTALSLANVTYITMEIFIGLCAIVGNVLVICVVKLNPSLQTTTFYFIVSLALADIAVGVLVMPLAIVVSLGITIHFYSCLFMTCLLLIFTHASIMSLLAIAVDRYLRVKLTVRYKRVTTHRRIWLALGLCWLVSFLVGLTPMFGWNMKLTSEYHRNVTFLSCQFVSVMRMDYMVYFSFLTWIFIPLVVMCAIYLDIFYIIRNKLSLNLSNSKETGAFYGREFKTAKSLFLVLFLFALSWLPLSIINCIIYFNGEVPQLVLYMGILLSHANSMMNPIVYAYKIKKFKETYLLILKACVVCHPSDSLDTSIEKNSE
Kind of assay: Radioligand binding at human A3 AR ([125I]I-AB-MECA, membranes of CHO cells). Particulars: [125I]38; CHO cells; read-out: Affinity (Ki, nM), A3. The method, boiled down: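 Membranes came from CHO cells stably expressing hA3R, pretreated with adenosine deaminase (3 units/mL). Competition with agonist radioligand was run in 50 mM Tris-HCl pH 7.5, 10 mM MgCl2 for 60 min at 25 °C, followed by GF/B filtration and γ-counting. Ki values derived.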
For orientation: Ki means a dissociation constant, usually derived from enzyme kinetics or from competition with a known ligand. Consider `CNC(=O)[C@@]12C[C@@H]1[C@@H](n1cnc3c(NCc4cccc(Cl)c4)nc(C#CCCCCc4cn(Cc5ccc(-n6sccc6=O)cc5)nn4)nc31)[C@H](O)[C@@H]2O` [Compound 19, (1S,2R,3S,4R,5S)-6-(3-Chlorobenzylamino)-(2-(1-(4-3-oxoisothiazol-2(3H)-yl)benzyl-1H-1,2,3-triazol-4-yphex-1-ynyl)-9H-purin-9-yl)-2′,3′-dihydroxybicyclo[3.1.0]hexane-β-carboxylic acid N-methylamide], for which the inhibition constant Ki was determined as 102 ± 25 nM.

For `CNC(=O)[C@@]12C[C@@H]1[C@@H](n1cnc3c(NCc4cccc(Cl)c4)nc(C#CCCCCc4cn(-c5ccc(C(=O)O)cc5)nn4)nc31)[C@H](O)[C@@H]2O` [Compound 13, (1S,2R,3S,4R,5S)-4′-(6-(3-Chlorobenzylamino)-2-(6-(1-(4-carboxyl-phenyl)-1H-1,2,3-triazol-4-yl)hex-1-ynyl)-9H-purin-9-yl)-2′,3′-dihydroxybicyclo[3.1.0]hexane-1′-carboxylic acid N-methylamide], the inhibitory constant (Ki) is 180 ± 23 nM.

As for `CNC(=O)[C@@]12C[C@@H]1[C@@H](n1cnc3c(NCc4cccc(Cl)c4)nc(C#CCCCCc4cn(-c5ccc(N)cc5)nn4)nc31)[C@H](O)[C@@H]2O` [Compound 12, (1S,2R,3S,4R,5S)-4′-(6-(3-Chlorobenzylamino)-2-(6-(1-(4-amino-phenyl)-1H-1,2,3-triazol-4-yl)hex-1-ynyl)-9H-purin-9-yl)-2′,3′-dihydroxybicyclo[3.1.0]hexane-1′-carboxylic acid N-methylamide], the Ki was determined as 87.1 ± 13.1 nM.

For the molecule `CNC(=O)[C@@]12C[C@@H]1[C@@H](n1cnc3c(NCc4cccc(Cl)c4)nc(C#CCCCCc4cn(-c5ccc(F)c([N+](=O)[O-])c5)nn4)nc31)[C@H](O)[C@@H]2O` [Compound 11], the Ki turned out to be 10.6 ± 3.8 nM.

As for `C#CCCCCC#Cc1nc(NCc2cccc(Cl)c2)c2ncn(C3C(O)C(O)C4(C(=O)NC)CC34)c2n1` (stereo not drawn) [Compound 9, (1′S, 2′R, 3′S, 4′S, 5′S)-4′-[6-(3-Chlorobenzylamino)-2-(1,7-octadiynyl)-9H-purin-9-yl]-2′,3′-dihydroxybicyclo[3.1.0]hexane-1′-carboxylic acid N-methylamide], the Ki amounted to 29.4 ± 9.8 nM.

`CNC(=O)[C@@]12C[C@@H]1[C@@H](n1cnc3c(NCc4cccc(Cl)c4)nc(C#CCCCCc4cn(CCCCCCNC(=O)c5ccc(-c6c7ccc(=N)c(S(=O)(=O)O)c-7oc7c(S(=O)(=O)O)c(N)ccc67)c(C(=O)O)c5)nn4)nc31)[C@H](O)[C@@H]2O` [Compound 23]: the Ki turned out to be 416 ± 45 nM.

Consider `CNC(=O)[C@@]12C[C@@H]1[C@@H](n1cnc3c(NCc4cccc(Cl)c4)nc(C#CCCCCc4cn(CCCCCCNC(=O)CCCC[C@@H]5SC[C@@H]6NC(=O)N[C@@H]65)nn4)nc31)[C@H](O)[C@@H]2O` [Compound 20, (1S,2R,3S,4R,5S)-6-(3-Chlorobenzylamino)-(2-(6-(1-(6-(5-(3aS,4S,6aR)-oxohexahydro-1H-thieno[3,4-d]imidazol-4-yl)pentanamido)hexyl-1H-1,2,3-triazol-4-yl)hex-1-ynyl)-9H-purin-9-yl)-2′,3′-dihydroxybicyclo[3.1.0]hexane-1′-carboxylic acid N-methylamide], for which the inhibition constant Ki was 285 ± 54 nM.

In the case of `CNC(=O)[C@@]12C[C@@H]1[C@@H](n1cnc3c(NCc4cccc(Cl)c4)nc(C#CCCCCc4cn(-c5ccc(N=C=S)cc5)nn4)nc31)[C@H](O)[C@@H]2O` [Compound 26, (1S,2R,3S,4R,5S)-6-(3-Chlorobenzylamino)-(2-(6-(1-(4-isothiocyante-phenyl)-1H-1,2,3-triazol-4-yl)hex-1-ynyl)-9H-purin-9-yl)-2′,3′-dihydroxybicyclo[3.1.0]hexane-1′-carboxylic acid N-methylamide], the Ki worked out at 37.5 ± 16 nM.

For the molecule `CNC(=O)[C@@]12C[C@@H]1[C@@H](n1cnc3c(NCc4cccc(Cl)c4)nc(C#CCCCCc4cn(CCCCN)nn4)nc31)[C@H](O)[C@@H]2O` [Compound 16, (1S,2R,3S,4R,5S)-6-(3-Chlorobenzylamino)-(2-(6-(1-(4-aminobutyl)-1H-1,2,3-triazol-4-yl)hex-1-ynyl)-9H-purin-9-yl)-2′,3′-dihydroxybicyclo[3.1.0]hexane-1′-carboxylic acid N-methylamide], the Ki came out at 47 ± 1.8 nM.

For `CNC(=O)[C@@]12C[C@@H]1[C@@H](n1cnc3c(NCc4cccc(Cl)c4)nc(-c4nnn(-c5ccc(N=C=S)cc5)c4CCCCc4cn(-c5ccc(N=C=S)cc5)nn4)nc31)[C@H](O)[C@@H]2O` [Compound 25, (1S,2R,3S,4R,5S)-6-(3-Chlorobenzylamino)-(2-(1,6-bis(4-isothiocyante-phenyl)-1H-bis(1,2,3-triazol-4-yl)hex-1-ynyl)-9H-purin-9-yl)-2′,3′-dihydroxybicyclo[3.1.0]hexane-1′-carboxylic acid N-methylamide], the inhibitory constant (Ki) was 8.8 ± 1.3 nM.

Turning to `CNC(=O)[C@@]12C[C@@H]1[C@@H](n1cnc3c(NCc4cccc(Cl)c4)nc(C#CCCCCc4cn(C56CC7CC(CC(C7)C5)C6)nn4)nc31)[C@H](O)[C@@H]2O` [Compound 18, (1S,2R,3S,4R,5S)-6-(3-Chlorobenzylamino)-(2-(6-(1-(adamantyl)-1H-1,2,3-triazol-4-yl)hex-1-ynyl)-9H-purin-9-yl)-2′,3′-dihydroxybicyclo[3.1.0]hexane-1′-carboxylic acid N-methylamide], the inhibition constant (Ki) came out at 6.5 ± 0.5 nM.

On to `CNC(=O)[C@@]12C[C@@H]1[C@@H](n1cnc3c(NCc4cccc(Cl)c4)nc(C#CCCCCc4cn(-c5ccc(C(=O)CBr)cc5)nn4)nc31)[C@H](O)[C@@H]2O` [Compound 14, (1S,2R,3S,4R,5S)-6-(3-Chlorobenzylamino)-4-(2-(6-(4-(2-bromoacetyl)phenyl)-1H-1,2,3-triazol-4-yphex-1-ynyl)-9H-purin-9-yl)-2′,3′-dihydroxybicyclo[3.1.0]hexane-1′-carboxylic acid N-methylamide], for which the inhibition constant Ki was 9.6 ± 1.3 nM.

For `CNC(=O)[C@@]12C[C@@H]1[C@@H](n1cnc3c(NCc4cccc(Cl)c4)nc(C#CCCCCc4cn(CCNC(C)=O)nn4)nc31)[C@H](O)[C@@H]2O` [Compound 15, (1S,2R,3S,4R,5S)-6-(3-Chlorobenzylamino)-(2-(6-(1-(4-acetamidoethyl)-1H-1,2,3-triazol-4-yl)hex-1-ynyl)-9H-purin-9-yl)-2′,3′-dihydroxybicyclo[3.1.0]hexane-1′-carboxylic acid N-methylamide], the Ki stood at 22.3 ± 1.6 nM.

As to `CNC(=O)[C@@]12C[C@@H]1[C@@H](n1cnc3c(NCc4cccc(Cl)c4)nc(C#CCCCCc4cn(CCCCCCC(=O)NCCCCCCNC(=O)CCCC[C@@H]5SC[C@@H]6NC(=O)N[C@@H]65)nn4)nc31)[C@H](O)[C@@H]2O` [Compound 21], the Ki turned out to be 235 ± 43 nM.

In the case of `CNC(=O)[C@@]12C[C@@H]1[C@@H](n1cnc3c(NCc4cccc(Cl)c4)nc(C#CCCCCc4cn(CCCCNC(C)=O)nn4)nc31)[C@H](O)[C@@H]2O` [Compound 17, (1S,2R,3S,4R,5S)-6-(3-Chlorobenzylamino)-(2-(6-(1-(4-acetamidobutyl)-1H-1,2,3-triazol-4-yl)hex-1-ynyl)-9H-purin-9-yl)-2′,3′-dihydroxybicyclo[3.1.0]hexane-1′-carboxylic acid N-methylamide], the Ki turned out to be 89.5 ± 12.6 nM.

The assay is the same for the next values; noted with them: radioligand binding inhibition curves, figure legends.
Take `CNC(=O)[C@@]12C[C@@H]1[C@@H](n1cnc3c(NCc4cccc(Cl)c4)nc(C#CCCCCc4cn(C56CC7CC(CC(C7)C5)C6)nn4)nc31)[C@H](O)[C@@H]2O` [Compound 18, (1S,2R,3S,4R,5S)-6-(3-Chlorobenzylamino)-(2-(6-(1-(adamantyl)-1H-1,2,3-triazol-4-yl)hex-1-ynyl)-9H-purin-9-yl)-2′,3′-dihydroxybicyclo[3.1.0]hexane-1′-carboxylic acid N-methylamide]: the “selectivity for the hA3AR in comparison to the hA1 and hA2A ARs” value was “highly selective”.

For another assay, the target named is T1, human A3AR.
Assay: not given
Particulars: concentration 10 μM; values from Tosh et al.; cited from earlier work.
For `CNC(=O)[C@@]12C[C@@H]1[C@@H](n1cnc3c(NCc4cccc(Cl)c4)nc(C#CCCCCc4cn(CCNC(C)=O)nn4)nc31)[C@H](O)[C@@H]2O` [Compound 15, (1S,2R,3S,4R,5S)-6-(3-Chlorobenzylamino)-(2-(6-(1-(4-acetamidoethyl)-1H-1,2,3-triazol-4-yl)hex-1-ynyl)-9H-purin-9-yl)-2′,3′-dihydroxybicyclo[3.1.0]hexane-1′-carboxylic acid N-methylamide], the “% Inhibition of cAMP accumulation at the hA3AR” value was 93.6 ± 17.7%.

The target of another assay is T2, human A1 AR (Homo sapiens, UniProt P30542).
T2 construct: expressed in transfected cells
T2 sequence (P30542 1-326): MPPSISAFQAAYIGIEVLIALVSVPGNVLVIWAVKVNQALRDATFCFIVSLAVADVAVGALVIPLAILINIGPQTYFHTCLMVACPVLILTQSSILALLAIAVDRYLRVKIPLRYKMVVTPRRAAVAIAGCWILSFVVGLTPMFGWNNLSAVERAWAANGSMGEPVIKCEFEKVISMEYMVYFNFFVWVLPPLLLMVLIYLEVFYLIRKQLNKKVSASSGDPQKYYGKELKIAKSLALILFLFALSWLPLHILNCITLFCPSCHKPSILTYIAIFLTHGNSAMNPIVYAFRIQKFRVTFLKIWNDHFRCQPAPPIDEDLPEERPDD
Assay: not given
Particulars: at 10 μM; model compounds; values from Tosh et al. and Melman et al.; cited from earlier work.
Turning to `C#CCCCCC#Cc1nc(NCc2cccc(Cl)c2)c2ncn(C3C(O)C(O)C4(C(=O)NC)CC34)c2n1` (stereo not drawn) [Compound 9, (1′S, 2′R, 3′S, 4′S, 5′S)-4′-[6-(3-Chlorobenzylamino)-2-(1,7-octadiynyl)-9H-purin-9-yl]-2′,3′-dihydroxybicyclo[3.1.0]hexane-1′-carboxylic acid N-methylamide], the “% inhibition, A1” value is given as “(31%”.
